# How the values were obtained:
# mAbs to SP and SP-enol = assay: Direct cELISA, binding of analytes and other pesticides by the generated mAbs; parameters: species or system mouse; settings: homologous tracer, all mAbs; read-out: IC50 values with the homologous tracer
# Text: Six mouse mAbs were obtained; three were from immunogen BSA‒SPm—named SPm#23, SPm#25, and SPm#216—and three from conjugate BSA‒SPo—named SPo#227, SPo#237, and SPo#243. These antibodies contained κ light chains and were of the IgG1 isotype, except mAb SPm#25 which was IgG2a. The affinity to SP and SP-enol was studied by checkerboard cELISA in the capture antibody-coated direct format, using homologous and heterologous enzyme tracers (with the same or different hapten, respectively, than the immunizing conjugate). SP and SP-enol standards were prepared in PBS (10 mM phosphate buffer, pH 7.4, with 140 mM NaCl) and tracer solutions for the competitive step were prepared in PBS-T (PBS containing 0.05% (v/v) Tween-20). […] Tracers with linker site heterologies were not bound by the antibodies. The only exception was mAb SPm#23 which did recognize the heterologous HRP‒SPh conjugate. For this antibody, the spacer arm of hapten SPh was located at a more proximal site than that of hapten […]. The lowest IC50 value with the homologous tracer was around 3 nM for SP-enol whereas binding to SP was moderate (IC50 values were higher than 30 nM).
# (§1) Concerning specificity, the two assayed immunogens (BSA‒SPm and BSA‒SPo) afforded equivalent results. […] Cross-reactivity with the main SP metabolites was studied with antibody SPm#23.
# (§2) Microplates were precoated with GAM in order to immobilise the mAb. The competitive step was carried out by mixing the analyte solution or diluted sample with the enzyme tracer solution. Standard curves were built in borosilicate glass tubes from 0.03 to 30 nM by a threefold serial dilution of the most concentrated standard solution, and a blank (no analyte) was also run. Concentrated stock solutions of the analytes in anhydrous DMF were used to prepare the most concentrated standard solution—the DMF concentration was always lower than 0.1% (v/v). The complete immunoassay procedure can be found in the Supplementary Information file.
# (§3) Table S1. Specificity of the
# (§4) 7. Direct competitive ELISA procedure
# (§5) The same protocol previously described for this format was applied.7 Briefly, plates were coated with 100 µL per well of 1 µg/mL GAM solution in carbonate‒bicarbonate buffer, pH 9.6, by overnight incubation at 4 °C. Wells were washed four times with washing solution (150 mM NaCl with 0.05% (v/v) Tween-20) after each incubation step. Then, 100 µL per well of specific mAb solution in PBS-T was added and plates were incubated at room temperature during 1 h. The competitive reaction was carried out by adding 50 µL per well of analyte solution or diluted sample and 50 µL per well of tracer […]
# (§6) enzyme substrate solution (2 mg/mL o-phenylendiamine and 0.012% (v/v) H2O2 in 25 mM sodium citrate and 62 mM sodium phosphate buffer, pH 5.4). Ten minutes later, the enzyme reaction was stopped by adding 100 µL per well of 1 M H2SO4.
# 8. Influence of pH and ionic strength […]
# (§7) 7 E. Ceballos-Alcantarilla, D. López-Puertollano, C. Agulló, A. Abad-Fuentes, A. Abad-Somovilla, J. V. Mercader.
# Combined heterologies for monoclonal antibody-based immunoanalysis of fluxapyroxad. Analyst 143, 5718‒
# mAb SPm#23 [1] = assay: Antibody specificity (cross-reactivity) of the selected mAb; format: binding, mouse; settings: cross-reactivity of the selected mAb, SP-enol = 100; n=3
# Description: as §1, §2, §3, §4, §5, §6
# 8. Influence of pH and ionic strength
# Figure S5. Influence of pH and ionic strength over the Amax and IC50 values of the spirotetramat-enol standard curve of the studied direct cELISA.
# as §7
# Combined heterologies for monoclonal antibody-based immunoanalysis of fluxapyroxad. Analyst 143, 5718‒ […]
# mAb SPm#23 [2] = assay: Optimized direct cELISA (mAb SPm#23 with tracer HRP–SPh), SP-enol standard curve; format: binding, mouse; settings: direct cELISA, heterologous bioconjugate
# Description: (§8) In order to simultaneously quantify SP and SP-enol contents in a sample, an in situ procedure for treating the sample with alkaline solution in order to hydrolyse SP into SP-enol was assessed. SP and SP-enol standard solutions were prepared in MilliQ water and diluted fivefold with 40 mM NaOH. The mixtures were incubated 10 min at room temperature and diluted twofold with dilution buffer (200 mM Tris·HCl buffer, pH 8.0, containing 280 mM NaCl). For the competitive step, enzyme tracer solutions were prepared in TBS-T (100 mM Tris·HCl buffer, pH 8.0, containing 140 mM NaCl and 0.05% (v/v) Tween-20). As shown in the inset of Table 2, the obtained standard curves of SP-enol and hydrolysed SP were almost identical. This hydrolysis procedure was validated by HPLC‒MS/MS. SP and SP-enol aqueous solutions (50 µg/mL) were treated with NaOH and, 10 min later, the pH was lowered as previously described. Then, 10 µL of hydrolysed and diluted sample was transferred into 990 µL of acetonitrile and dried with anhydrous MgSO4. Controls without the hydrolysis step were also evaluated. Finally, the contents of SP, SP-enol, SP-keto, and SP-mono in the organic extracts were quantified (Table 2). […] Those samples were also analysed with the studied direct cELISA by running SP-enol standard solutions that had been incubated in NaOH and diluted with dilution buffer like the samples. […] Consequently, the developed hydrolysis procedure seemed to perform adequately for SP and SP-enol residue quantification as SP-enol equivalents.
# The sigmoidal inhibition curve obtained for SP-enol and the final assay conditions of the developed direct cELISA are provided in Table 3. […] The Amax value of the standard curve was near 1.0, the slope was − 1.4, and the background signal was negligible.
# as §2
# The absorbance of each microplate well was immediately read at 492 nm using a reference wavelength at 650 nm, and values were processed with KCJunior software from BioTek Instruments. The SigmaPlot Version 14.0 was used to fit the experimental values to a standard four-parameter logistic curve. Immunoassay sensitivity was estimated as the concentration of analyte affording a 50% decrease (IC50) of the maximum absorbance (Amax) obtained in the absence of analyte. The LOD of the assay was defined as the IC10 of the sigmoidal inhibition curve. The LOQ was experimentally determined as the lowest analyte concentration that provided accurate and precise results using fortified food samples. […]
# as §4
# The same protocol previously described for this format was applied.7 Briefly, plates were coated with 100 µL per well of 1 µg/mL GAM solution in carbonate‒bicarbonate buffer, pH 9.6, by overnight incubation at 4 °C. Wells were washed four times with washing solution (150 mM NaCl with 0.05% (v/v) Tween-20) after each incubation step. […]
# [3] = Spirotetramat hydrolysis study by HPLC‒MS/MS; format: physicochemical; parameters: content found by HPLC–MS/MS, sample treatment A / content found by HPLC–MS/MS, sample treatment B / content found by HPLC–MS/MS, sample treatment C / content found by HPLC–MS/MS, sample treatment D: unit not given beside the values
# Description: as §8
# SP, SP-enol, SP-keto, and SP-mono standard solutions were prepared by serial dilution in acetonitrile from 1 to 2500 μg/L in amber glass vials and kept at − 20 °C. The injection volume was 5 µL and the column temperature was 45 °C. The analysis was carried out using a C18 reverse phase column with a gradient of 0.2% (v/v) formic acid in water (A) and acetonitrile (B) as mobile phase at a flow rate of 0.3 mL/min. The elution profile was 0‒3 min, from 5% B to 95% B, 3.0‒3.5 min, 95% B, 3.5‒3.6 min, from 95% B to 5% B, and 3.6‒8 min, 5% B. Spectra were acquired in positive ionization multiple reaction monitoring mode with interchannel delay of 0.02 s.
# [4] = Spirotetramat hydrolysis study by direct cELISA; format: physicochemical
# Description: as §8
# [5] = parameters: method as in PMID 23436572; settings: cited from earlier work
# mammals = system: mammals; parameters: method as in earlier work; settings: cited from earlier work
compound,measurement,setting,value
"CCOC(=O)OC1=C(c2cc(C)ccc2C)C(=O)N[C@]12CC[C@@H](OC)CC2 [SP, ethyl cis-8-methoxy-2-oxo-3-(2,5-xylyl)-1-azaspiro[4.5]dec-3-en-4-yl carbonate]",IC50,mAbs to SP and SP-enol,> 30 nM
same,CR (%),mAb SPm#23 [1],11.8%
same,IC50 value for the sum of spirotetramat and spirotetramat-enol,mAb SPm#23 [2],0.1 ng/mL
same,fate on incubation in basic solution,"[3]; 40 mM NaOH, 10 min, room temperature, HPLC‒MS/MS",completely hydrolysed into SP-enol
same,"content found by HPLC–MS/MS, sample treatment A","[3]; A, SP hydrolysed (40 mM NaOH, 10 min, room temperature)",0.03
same,"Recovery (%), sample treatment A","[3]; A, SP hydrolysed, HPLC–MS/MS",93.4%
same,"content found by HPLC–MS/MS, sample treatment B","[3]; B, SP without hydrolysis",109.4
same,"Recovery (%), sample treatment B","[3]; B, SP without hydrolysis, HPLC–MS/MS",88.8%
same,"content found by HPLC–MS/MS, sample treatment C","[3]; C, SP-enol hydrolysed (40 mM NaOH, 10 min, room temperature)",0.02
same,"content found by HPLC–MS/MS, sample treatment D","[3]; D, SP-enol without hydrolysis",0.00
same,recovery measured as SP-enol by direct cELISA,[4]; incubated in NaOH solution (samples A and C),85.0%
same,recovery measured as SP-enol by direct cELISA,[4]; non-hydrolysed control solution (samples B and D),could not be quantified
same,hydrolysis at basic pH values,[5],quickly hydrolyses to form SP-enol
same,eye irritation,mammals,can be an eye irritant
same,skin-sensitization,mammals,may cause skin-sensitization
same,toxicity in mammals,mammals,does not show severe toxicity

# From paper PMC7815808, “Enzyme and lateral flow monoclonal antibody-based immunoassays to simultaneously determine spirotetramat and spirotetramat-enol in foodstuffs” (Scientific Reports, 2021)
